The record followed here is patent US20030004172A1, “Fused pyrimidinone matrix metalloproteinase inhibitors” (priority 2001, published 2003).

The target of this assay is MMP-13CD (catalytic domain of collagenase-3) (Homo sapiens, UniProt P45452). Briefly: Thiopeptolide substrate hydrolysis inhibition assay, MMP-13CD. Type of assay: biochemical. The following applies: Table I; thiopeptolide substrate, HEPES pH 7.0, 22° C.; read-out: MMP-13CD IC50. The source says: Thiopeptolide substrates show virtually no decomposition or hydrolysis at or below neutral pH in the absence of a matrix metalloproteinase enzyme.
Take `CCOc1cccc(CCNC(=O)c2cc3c(=O)n(Cc4ccccc4)c(=O)n(C)c3s2)c1` [Example 327, 3-Benzyl-1-methyl-2,4-dioxo-1,2,3,4-tetrahydro-thieno[2,3-d]pyrimidine-6-carboxylic acid[2-(3-ethoxy-phenyl)-ethyl]-amide]: the IC50 worked out at 2800 nM.
As to `Cn1c(=O)n(Cc2ccccc2)c(=O)c2cc(C(=O)OC3CCOC3)sc21` (stereo not drawn) [Example 191, 3-Benzyl-1-methyl-2,4-dioxo-1,2,3,4-tetrahydro-thieno[2,3-d]pyrimidine-6-carboxylic acid tetrahydro-furan-3-yl ester], the IC50 was 2300 nM.
With `COc1ccc(CNC(=O)c2cc3c(=O)n(Cc4ccc(F)cc4)c(=O)n(C)c3s2)cc1` [Example 60, 3-(4-Fluoro-benzyl)-1-methyl-2,4-dioxo-1,2,3,4-tetrahydro-thieno[2,3-d]pyrimidine-6-carboxylic acid 4-methoxy-benzylamide] the figure was 160 nM; with `CC#CCn1c(=O)c2cc(C(=O)OCc3ccccc3)sc2n(C)c1=O` [Example 131, 3-But-2-ynyl-1-methyl-2,4-dioxo-1,2,3,4-tetrahydro-thieno[2,3-d]pyrimidine-6-carboxylic acid benzyl ester], 19 nM.
With `COCN1C(=O)c2ccc(Cn3c(=O)c4cc(C(=O)NCc5ccc(OC)cc5)sc4n(C)c3=O)cc2S1(=O)=O` [Example 229, 3-(2-Methoxymethyl-1,1,3-trioxo-2,3-dihydro-1H-1l^6l-1,2-benzisothiazol-6-ylmethyl)-1-methyl-2,4-dioxo-1,2,3,4-tetrahydro-thieno[2,3-d]pyrimidine-6-carboxylic acid 4-methoxy-benzylamide] the figure was 680 nM; with `COc1ccc(CNC(=O)c2cc3c(=O)n(CCS(=O)(=O)c4ccc(C)cc4)c(=O)n(C)c3s2)cc1` [Example 269], 26000 nM.
With `Cc1c(C(=O)OCc2ccccc2)sc2[nH]c(=O)n(Cc3ccc(F)cc3)c(=O)c12` [Example 302, 3-(4-Fluoro-benzyl)-5-methyl-2,4-dioxo-1,2,3,4-tetrahydro-thieno[2,3-d]pyrimidine-6-carboxylic acid benzyl ester] the figure was 30000 nM; with `Cn1c(=O)n(Cc2ccccc2)c(=O)c2cc(C(=O)OCC3CCCN3)sc21` (stereo not drawn) [Example 199, 3-Benzyl-1-methyl-2,4-dioxo-1,2,3,4-tetrahydro-thieno[2,3-d]pyrimidine-6-carboxylic acid pyrrolidin-2-ylmethyl ester], 17000 nM; with `O=C(OCc1ccoc1)c1cc2c(=O)n(Cc3ccccc3)c(=O)[nH]c2s1` [Example 13, 3-Benzyl-2,4-dioxo-1,2,3,4-tetrahydro-thieno[2,3-d]pyrimidine-6-carboxylic acid furan-3-ylmethyl ester], 18000 nM.
On to `Cn1c(=O)n(Cc2ccccc2)c(=O)c2cc(C(=O)OCc3ccc(Cl)cc3)sc21` [Example 185, 3-Benzyl-1-methyl-2,4-dioxo-1,2,3,4-tetrahydro-thieno[2,3-d]pyrimidine-6-carboxylic acid 4-chloro-benzyl ester], for which the IC50 turned out to be 14 nM.
With `Cn1c(=O)n(Cc2ccccc2)c(=O)c2cc(C(=O)OCc3cccnc3)sc21` [Example 163, 3-Benzyl-1-methyl-2,4-dioxo-1,2,3,4-tetrahydro-thieno[2,3-d]pyrimidine-6-carboxylic acid pyridin-3-ylmethyl ester] the figure was 16 nM; with `Cn1c(=O)n(Cc2ccccc2)c(=O)c2cc(C(=O)NCc3ccncc3)sc21` [Example 75, 3-Benzyl-1-methyl-2,4-dioxo-1,2,3,4-tetrahydro-thieno[2,3-d]pyrimidine-6-carboxylic acid (pyridin-4-ylmethyl)-amide], 345 nM.
With `COc1cccc(CNC(=O)c2cc3c(=O)n(C(C)c4ccccc4)c(=O)n(C)c3s2)c1` (stereo not drawn) [Example 279], the IC50 is 3500 nM.
With `Cn1c(=O)n(Cc2ccccc2CS(=O)(=O)c2ccccc2)c(=O)c2cc(C(=O)OCc3ccccc3)sc21` [Example 137, 3-(2-Benzenesulfonylmethyl-benzyl)-1-methyl-2,4-dioxo-1,2,3,4tetrahydro-thieno[2,3-d]pyrimidine-6-carboxylic acid benzyl ester] the figure was 8300 nM; with `Cn1c(=O)n(Cc2ccc(C(=O)O)cc2)c(=O)c2cc(C(=O)NCc3cc(C(F)(F)F)cc(C(F)(F)F)c3)sc21` [Example 57, 4-[6-(3,5-Bis-trifluoromethyl-benzylcarbamoyl)-1-methyl-2,4-dioxo-1,4-dihydro-2H-thieno[2,3-d]pyrimidin-3-ylmethyl]-benzoic acid], 5600 nM.
With `Cn1c(=O)n(Cc2ccc(-c3nnn[nH]3)cc2)c(=O)c2cc(C(=O)NCc3ccc(F)cc3)sc21` [Example 87, 1-Methyl-2,4-dioxo-3-[4-(1H-tetrazol-5-yl)-benzyl]-1,2,3,4-tetrahydro-thieno[2,3-d]pyrimidine-6-carboxylic acid 4-fluoro-benzylamide] the figure was 18.5 nM.
With `Cc1cc(Cn2c(=O)c3cc(C(N)=O)sc3n(C)c2=O)ccc1C(=O)O` [Example 249] the figure was 7800 nM; with `Cn1c(=O)n(Cc2nc(N)nc(Nc3ccccc3)n2)c(=O)c2cc(C(=O)OCc3ccccc3)sc21` [Example 105, 3(4-Amino-6-phenylamino-1,3,5-triazin-2-ylmethyl)-1-methyl-2,4-dioxo-1,2,4-tetrahydro-thieno[2,3-d]pyrimidine-6-carboxylic acid benzyl ester], 520 nM; with `COc1ccc(COC(=O)c2cc3c(=O)n(Cc4ccccc4)c(=O)[nH]c3s2)cc1` [Example 50, 3-Benzyl-2,4-dioxo-1,2,3,4-tetrahydro-thieno[2,3-d]pyrimidine-6-carboxylic acid 4-methoxy-benzyl ester], 87.5 nM.
Consider `Cn1c(=O)n(Cc2ccc3ccccc3c2)c(=O)c2cc(C(=O)OCc3ccccc3)sc21` [Example 312, 1-Methyl-3-naphthalen-2-ylmethyl-2,4-dioxo-1,2,3,4-tetrahydro-thieno[2,3-d]pyrimidine-6-carboxylic acid benzyl ester], for which the IC50 came out at 27.5 nM.
With `COc1cc(CNC(=O)c2cc3c(=O)n(Cc4ccccc4)c(=O)n(C)c3s2)cc(OC)c1` [Example 333, 3-Benzyl-1-methyl-2,4-dioxo-1,2,3,4-tetrahydro-thieno[2,3-d]pyrimidine-6-carboxylic acid 3,5-dimethoxy-benzylamide] the figure was above 100000 nM.
For the compound `Cn1c(=O)n(CC(O)COc2cccc3ccccc23)c(=O)c2cc(C(=O)OCc3ccccc3)sc21` (stereo not drawn) [Example 126, 3-[2-Hydroxy-3-(naphthalen-1-yloxy)-propyl]-1-methyl-2,4-dioxo-1,2,3,4-tetrahydro-thieno[2,3-d]pyrimidine-6-carboxylic acid benzyl ester], the IC50 came to 13000 nM.
For `Cn1c(=O)n(CC2CO2)c(=O)c2cc(C(=O)OCc3ccccc3)sc21` (stereo not drawn) [Example 119, 1-Methyl-3-oxiranylmethyl-2,4-dioxo-1,2,3,4-tetrahydro-thieno[2,3-d]pyrimidine-6-carboxylic acid benzyl ester], the IC50 is 510 nM.
With “3-(4-Carboxy-benzyl)-1-methyl-2,4-dioxo-1,2,3,4-tetrahydro-thieno[2,3-d]pyrimidine-6-carboxylic acid 2-ethoxy-benzyl ester [Example 319]” the figure was 8000 nM.
